Measurements as given in patent US10597735B2, “Antibacterial and plasmid elimination agents” (priority 2006, dated 2020).
In brackets after ≈: the same amount, converted by molar mass. Entries after “also recorded” stand apart in the source; their conditions may differ. Like-named read-outs stand apart in the source and are kept apart here. Where a SMILES comes first, the peptide text is derived from it.

Experiments:
[1] = tested on: GFP-tag degradation by ClpXP; experiment: In vivo screen: GFP-tag reporter fluorescence in E. coli producing the cyclic peptide from a SICLOPPS plasmid, epifluorescence microscopy (Example 3); assay type: cell-based
Description: Screen for inhibitors of the tmRNA pathway: E. coli BW7786 cells containing the GFP-tag reporter and the SICLOPPS library were grown in LB broth with 30 μg/ml chloramphenicol, 100 μg/ml ampicillin, and 0.0002% arabinose at 37° C. to OD600=0.3. IPTG was added to a final concentration of 1 mM, and the culture was grown for 3 hours. Cells were sorted by fluorescence activated cell sorting (FACS) using a Beckman Coulter Elite cell sorter with Autoclone to isolate cells with GFP fluorescence, and selected cells were deposited on agar plates for clonal growth. Cells from each colony were grown in liquid culture as described above and examined by epifluorescence microscopy. The fluorescence intensity and the number of cells with fluorescence above background were scored using ImagePro software (MediaCybernetics). SICLOPPS plasmid DNA was prepared from selected clones and the region encoding the cyclic peptide was sequenced. Peptide sequences were obtained from conceptual translation of the DNA sequences.
Approximately 0.014% of the population had fluorescence over the background level, and 96 of these cells were isolated for clonal growth and characterization. To eliminate any clones that resulted from sorting errors or spurious accumulation of GFP, cells from each colony were cultured and examined by epifluorescence microscopy.

GFP-tag reporter = GFP-tag reporter fluorescence in cells expressing SGW+5 SICLOPPS clones, epifluorescence microscopy (Example 1); assay type: cell-based, E. coli
Source text: Clonal populations are obtained by spotting the cells with high fluorescence on agar plates, and cells from each colony are screened by epi-fluorescence microscopy for fluorescence intensity. SICLOPPS plasmids from clones that pass the microscopy screen were isolated and sequenced to identify the cyclic peptide that is produced in that clone.
A SICLOPPS library was constructed in which the cyclic peptide contains three constant amino acids, SGW, followed by five random amino acids encoded by NNS codons. This library was introduced into cells containing the GFP-tag reporter, and the expression of the reporter and cyclic peptide were induced. Approximately 690,000 cells were sorted by FACS and the brightest 50 were isolated. These 50 clones were grown individually in fresh medium, the expression of reporter and cyclic peptide was induced, and the culture was observed by epifluorescence microscopy. Two clones produced cultures in which nearly 100% of the cells were highly fluorescent.

ClpXP [2] = biological target: T1, ClpXP (Escherichia coli, UniProt P0A6G7+P0A6H1); experiment: biochemical; assay type: biochemical, E. coli
Description: (§1) In vitro proteolysis assays: Proteolysis of GFP-tag was performed using a continuous fluorescence assay essentially as previously described (Levchenko et al. 2000, Science 289: 2354-2356). Briefly, loss of GFP fluorescence was monitored at 507 nm after excitation at 395 nm at 30° C. using a Hitachi F-2000 Fluorescence Spectrophotometer in buffer R (25 mM HEPES-KOH (pH 7.6), 5 mM MgCl2, 50 mM KCl, 0.032% NP-40, 10% glycerol, and an ATP regeneration system containing 4 mM ATP (pH 7), 16 mM creatine phosphate and 0.32 mg/ml creatine kinase). Typically, reactions contained […], 0.3 μM ClpP14, and equimolar concentrations (0.2 μM-2.0 μM) GFP-tag and SspB. Degradation of GFP-tag protein was confirmed by SDS-PAGE assays. To examine inhibition of GFP-tag proteolysis, peptides were incubated with ClpXP in reaction buffer for 5 min prior to the addition of GFP-tag. Plots of fluorescence versus time were fit with a single exponential function to determine the initial rate of proteolysis. Kinetic parameters were estimated using Eadie-Hofstee plots.
Proteolysis of GFP-tag in the presence of ClpXP and SspB was monitored by loss of GFP fluorescence in a continuous fluorometric assay. In the absence of cyclic peptide, GFP-tag was degraded with kinetic parameters kcat=[…], KM=0.74±0.04 μM. […] Likewise, no degradation was observed when ClpX or ClpP were omitted from the reaction.

ClpXP [3] = biological target: T1, ClpXP; experiment: In vitro proteolysis of GFP-tag by ClpXP without SspB (Example 3); assay type: biochemical, E. coli; conditions: no SspB
Description: as §1
In the in vitro and in vivo proteolysis reactions above, the proteolytic adaptor SspB binds GFP-tag and tethers it to ClpXP (Levchenko et al. 2000, Science 289: 2354-2356). In principle, IXP1 could act on the GFP-tag.cndot.ClpXP interaction or the SspB.cndot.ClpXP interaction. […]

ClpX = ClpX (Escherichia coli, UniProt P0A6H1); experiment: ClpX ATPase assay; assay type: biochemical, E. coli
Description: ATPase and peptidase assays: ClpX ATPase activity was measured by monitoring the increase in phosphate using a ternary hetero polyacid assay (Chen et al. 2003, Tsinghua Science and Technology 8: 422-427). 1 μM ClpX was incubated with or without 6 μM GFP-tag and varying concentrations of IXP1 in buffer P (4 mM ATP, 50 mM tris-HCl (pH 7.5), 100 mM NaCl, 100 mM KCl, 10 mM MgCl2, 2 mM DTT, and 10% glycerol) at 37° C. At each time point 10 μl was removed from the reaction, added to 265 μl 0.88 M nitric acid for 2 min, and 225 μl color developing solution (44.4 mM bismuth nitrate, 31.1 mM ammonium molybdate, 0.11% ascorbic acid) was added and the absorbance at 700 nm was determined. The rate of ATP hydrolysis was determined from plots of phosphate accumulation versus time.

ClpP = ClpP (Escherichia coli, UniProt P0A6G7); experiment: ClpP peptidase assay with Suc-Leu-Tyr-AMC; assay type: biochemical, E. coli; conditions: Suc-Leu-Tyr-AMC substrate
Description: ClpP peptidase activity was measured using the fluorogenic peptide Suc-Leu-Tyr-AMC. 0.1 μM ClpP was incubated with 0.5-1.0 mM Suc-Leu-Tyr-AMC and varying concentrations of IXP1 in buffer P at 37° C. and monitoring the fluorescence of AMC (excitation at 353 nm, emission at 442 nm).

ClpXP [4] = biological target: T1, ClpXP; experiment: Peptidase activity of ClpXP against IXP1, reverse-phase HPLC; assay type: biochemical, E. coli; conditions: 60 min, no GFP-tag, HPLC peak area
Description: Peptidase activity against IXP1 was assayed by incubating 200 μM IXP1 with 0.1 μM ClpX6, 0.3 μM ClpP14 and the ATP regeneration system in buffer R at 37° C. Sample were taken after 0, 5, and 60 min, and
separated by reverse-phase HPLC using a Varian Microsorb-MV C18 column developed in a gradient from 0.1% trifluoroacetic acid in water to 0.1% trifluoroacetic acid in acetonitrile. UV absorbance at 280 nm was monitored and the peak corresponding to the IXP1 cyclic peptide was determined by comparison to reactions containing only cyclic IXP1 or linear IXP1. The loss of cyclic IXP1 was determined by integrating the area under the cyclic IXP1 peak.

C. crescentus = assay type: cell-based, Caulobacter crescentus
Description: Antibacterial activity assays: To measure the effects of peptides on bacterial growth, cultures of C. crescentus were diluted to OD600=0.001, peptide was added at various concentrations, the cultures were incubated at 30° C. for 14 h, and the MIC was determined as the lowest concentration of peptide that prevented growth. To determine the MBC, each culture was diluted 1:100 in PYE and 10 μl of the diluted culture was spread onto PYE agar plates, incubated at 30° C. overnight, and the number of colonies on each plate was counted. The MBC was assigned as the concentration of peptide that reduced the number of colonies by 99.9% compared to cultures with no inhibitor.

ClpXP [5] = biological target: T1, ClpXP; experiment: ClpXP degradation of GFP-tag in the presence of SspB, continuous fluorimetric assay (Examples 1-2); assay type: biochemical, E. coli; conditions: SspB present
Description: (§2) ClpXP Proteolysis: PD buffer contained 25 mM HEPES-KOH (pH 7.6), 5 mM KCl, 5 mM MgCl2, 0.032% NP-40, 5 mM ATP, and 10% glycerol. The ATP regenerating system consisted of 8 mM creatine phosphate and 0.16 mg/ml creatine kinase. Inhibition experiments were performed using a Hitachi F-2000 Fluorescence Spectrophotometer. The rate of GFP-ssrA degradation was monitored at 30° C. for 5 minutes by the loss of fluorescence (excitation 488 nm; emission 507 nm). Competition experiments with increasing concentrations of peptide were performed using GFP-ssrA (0.2 μM), ClpX6 (0.3 ArM), ClpP14 (0.8 μM), and SspB2 (0.3 μM) in PD buffer plus 200 mM KCl and ATP regenerating system. Curve fitting for the competitive inhibition assays were performed using the Scientist program (MicroMath Scientific Software, Inc.).
Characterization of ClpXP inhibitors in vitro: Two of the selected cyclic peptides were synthesized in vitro to examine their effects on enzymatic assays. Peptides with the sequence SGWRVQGPL (SEQ ID NO: 1) and SGSKGVLPL (SEQ ID NO: 2) were chemically synthesized in the linear form, circularized, and purified by HPLC. The effects of these peptides on the activity of purified ClpXP were determined in vitro using a continuous fluorimetric assay. GFP-tag, SspB, ClpX and ClpP were each purified from over-expressing strains of E. coli, and degradation of GFP-tag was monitored by loss of fluorescence. In reactions containing all components, GFP-tag was degraded with kinetic parameters kcat=1.79±0.08 min−1, KM=0.74±0.04, similar to the previously published values of 1.44 min^−1 and 0.96 μM. […] For both cyclic peptides, inhibition of ClpXP was reversible, as no inhibition was observed when ClpXP was incubated with peptide at concentrations above the Kr, and dialyzed to remove unbound peptide before addition of enzyme to the reaction. The linear versions of SGSKGVLPL (SEQ ID NO: 2) and SGWRVQGPL (SEQ ID NO: 1) had Kb, values >1 mM (Table 4), so the cyclic architecture is likely to be important for inhibition.

ClpXP [6] = biological target: T1, ClpXP; experiment: ClpXP degradation of GFP-tag in the absence of SspB (Examples 1-2); assay type: biochemical, E. coli; conditions: no SspB
Description: as §2
A priori, there are several steps in the degradation pathway that could be inhibited by the selected cyclic peptides: binding of the substrate-SspB complex to ClpXP, ATPase activity of ClpX, and hydrolysis of the peptide bond by ClpP. Molecules that block the binding of substrate to SspB should not be inhibitors of proteolysis by ClpXP, because ClpXP will degrade tmRNA-tagged substrates in the absence of SspB. To determine if the inhibitors act through SspB, the kinetic assays were repeated in the absence of this proteolytic adaptor.

ClpXP [7] = biological target: T1, ClpXP; experiment: Proteolysis of λO protein by ClpXP, SDS-PAGE (Example 3); assay type: biochemical, E. coli
Description: Proteolysis of λO protein was assayed by incubating 1 μM λO with 0.1 μM ClpX6, 0.3 μM ClpP14 in buffer R at 30° C. At various times the reaction was sampled, the reaction was terminated by boiling in SDS-PAGE loading buffer, and analyzed using SDS-polyacrylamide gels stained with Coomassie blue. The intensity of the band corresponding to intact λO protein was measured using ImageQuant software (Molecular Dynamics), and plots of the intensity versus time were fit with single exponential functions to determine the half-life of λO protein.
To determine if IXP1 inhibits proteolysis of ClpXP substrates recognized by an epitope distinct from the tmRNA tag, λO protein was used as an assay substrate. […] Degradation of λO was assayed in the presence and absence of IXP1 by following the loss of intact λO protein on SDS-polyacrylamide gels (FIG. 7).

T1 sequence (P0A6G7 15-207): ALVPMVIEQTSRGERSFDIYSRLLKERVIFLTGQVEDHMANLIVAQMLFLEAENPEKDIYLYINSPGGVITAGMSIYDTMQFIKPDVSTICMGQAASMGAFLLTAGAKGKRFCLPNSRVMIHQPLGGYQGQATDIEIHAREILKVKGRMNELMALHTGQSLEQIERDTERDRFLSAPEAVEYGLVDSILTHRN
T1 sequence (P0A6H1 whole entry): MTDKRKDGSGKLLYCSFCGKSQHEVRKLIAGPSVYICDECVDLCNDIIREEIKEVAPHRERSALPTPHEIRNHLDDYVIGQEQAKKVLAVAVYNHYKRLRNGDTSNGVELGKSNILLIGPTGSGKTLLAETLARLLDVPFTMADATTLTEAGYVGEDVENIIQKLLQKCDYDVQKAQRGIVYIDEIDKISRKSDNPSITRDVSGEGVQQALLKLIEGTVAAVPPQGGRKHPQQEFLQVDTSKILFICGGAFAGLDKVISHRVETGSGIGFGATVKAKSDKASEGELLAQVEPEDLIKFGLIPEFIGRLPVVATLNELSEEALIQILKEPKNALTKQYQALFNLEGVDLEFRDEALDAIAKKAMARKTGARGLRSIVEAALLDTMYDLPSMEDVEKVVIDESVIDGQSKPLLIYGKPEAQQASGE
Chain of ClpX (P0A6H1 whole entry): as above
Chain of ClpP (P0A6G7 15-207): as the sequence (P0A6G7 15-207) above

Structure (SMILES) | cell morphology ([1]; compared with filamentous ΔclpX strain) | GFP-tag fluorescence / inhibition in vivo ([1]; compared with ΔclpX strain) | average fluorescent intensity relative to cultures expressing ICP1 or ICP2 (GFP-tag reporter) | cells highly fluorescent (GFP-tag reporter; induced culture) [%] | mode of inhibition of GFP-tag degradation (ClpXP [2]; SspB present) | inhibition of ClpXP proteolysis of GFP-tag in vitro (ClpXP [2]; at the concentrations tested) | effect on GFP-tag degradation by ClpXP in the absence of SspB (ClpXP [3]) | ClpX ATPase activity with GFP-tag included (ClpX; with GFP-tag) | rate of ClpX ATP hydrolysis (ClpX; without GFP-tag, up to 200 μM IXP1) | decrease of ClpP peptidase activity (ClpP) | amount of cyclic peptide after incubation with ClpXP (ClpXP [4]) | MBC (C. crescentus) [µM] | MIC (C. crescentus) [µM] | KI fold lower than the linear XB peptide (ClpXP [5]) [fold] | KI fold lower than the selected cyclic peptide inhibitors (ClpXP [5]) | inhibition of GFP-tag degradation by ClpXP in the absence of SspB (ClpXP [6]) | KI fold lower than the linear XB peptide (ClpXP [2]; SspB present) [fold] | inhibition of λO degradation by ClpXP (ClpXP [7]) | MBC (C. crescentus; C. crescentus, 99.9% colony reduction, listed as cyclic XB) [µM]
N=C(N)NCCC[C@@H]1NC(=O)CNC(=O)[C@H](Cc2ccc(O)cc2)NC(=O)[C@H](Cc2c[nH]c3ccccc23)NC(=O)CNC(=O)[C@H](CO)NC(=O)[C@H](Cc2c[nH]cn2)NC(=O)[C@H](CCCNC(=N)N)NC1=O [IXP1, SGWYGRRH] (HELM PEPTIDE1{G.R.R.H.S.G.W.Y}$PEPTIDE1,PEPTIDE1,1:R1-8:R2$$$V2.0) | slightly filamentous | indistinguishable from the ΔclpX strain; also recorded: fluorescent cells | more than twice | ~100 | uncompetitive inhibition | reduced the rate | still inhibited | no effect | not inhibited | less than 2% | did not change; also recorded: unchanged | 279 ± 23 (≈ 279 µg/mL) | 219 ± 42 (≈ 219 µg/mL) | – | – | – | – | – | –
CC(C)C[C@@H]1NC(=O)[C@H](C)NC(=O)[C@@H]2CCCN2C(=O)[C@H](CCCNC(=N)N)NC(=O)CNC(=O)CNC(=O)[C@H](CCCNC(=N)N)NC(=O)[C@H](CS)NC(=O)[C@H](CCCCN)NC(=O)[C@H](C(C)C)NC(=O)[C@H](C(C)C)NC(=O)[C@H](CCCNC(=N)N)NC1=O [cycXB, CRGGRPALRVVK] (HELM PEPTIDE1{A.L.R.V.V.K.C.R.G.G.R.P}$PEPTIDE1,PEPTIDE1,1:R1-12:R2$$$V2.0) | – | – | – | – | – | – | – | – | – | – | – | – | – | 7 | 2-3 fold | inhibited | 7 | did not inhibit | 40 ± 6 (≈ 51.7 µg/mL)
